For experiment [1], the target named is T1, human V2 receptor (Homo sapiens, UniProt P30518).
T1 construct: expressed in transfected cells
Briefly: Vasopressin 2 (V2) receptor binding (competition with 3H-vasopressin, CHO cells expressing human V2 receptor). The following applies: 0.5 nM 3H-vasopressin, CHO cell membranes, 2 hours at 22° C., pH 7.4. The protocol: Vasopressin 2 (V2) receptor binding
For binding assays, the receptor cDNA was permanently expressed in Chinese hamster ovary (CHO) cells. CHO cells were transfected with a vector directing expression of the cDNA for the human V2 receptor and the clonal cell lines expressing human V2 receptor was established essentially as described previously (Nakajima, Y., et. al. J. Biol. Chem., 1992, 267, 2437).
DNA-transfected cells were harvested and homogenized in ice cold 250 mM sucrose buffer containing 25 mM Tris-HCl (pH 7.4), 10 mM MgCl2, 1 mM EDTA and 5 μg/ml p-amidinophenylmethylsulfonyl fluoride (A-PMSF). The homogenate was centrifuged at 500×g for 10 minutes. The supernatant was centrifuged at 100,000×g for 1 hour. The final pellet was suspended in 25 mM Tris-HCl (pH 7.4) buffer (containing 10 mM […], 1 mM EDTA and 5 μg/ml A-PMSF), and stored in small aliquots at -80° C.
Competition assays were conducted at equilibrium (2 hours at 22° C.) by using 0.5 nM ^3 H-vasopressin (40-87 Ci/mmol, New England Nuclear) in 100 mM Tris-HCl (pH 7.4) buffer (containing 5 mM MgCl2, 5 μg/ml A-PMSF, 4 μg/ml leupeptin, 40 μg/ml bacitracin, 20 μg/ml chymostatin and 0.1% bovine serum albumin). Nonspecific binding was determined by using 1 μM vasopressin. After incubation, reaction mixture was rapidly filtered through Whatman glass filter (GF/C). […] The radioactivity was counted in a liquid scintilation counter. […]

The target in experiment [2] is T2, Vasopressin 1 (V1) receptor (Homo sapiens, UniProt P37288).
T2 construct: Platelet-rich plasma (PRP) was prepared by centrifugation of whole blood; from tissue; host or cells: platelet membranes from blood of normal subjects
The experiment is described as follows: Vasopressin 1 (V1) receptor binding (competition with 3H-vasopressin, platelet membrane preparation). The following applies: 1.5 nM 3H-vasopressin, platelet membranes, 15 minutes at 30° C., pH 7.4. The protocol:
Vasopressin 1 (V1) receptor binding
Blood was obtained by venipuncture from normal subjects. Platelet-rich plasma (PRP) was prepared by centrifugation of whole blood at 200×g for 10 minutes. PRP was centrifuged at 45,000×g for 30 minutes. The remaining pellet was resuspended in 10 volume of ice cold 100 mM Tris-HCl (pH 7.4) buffer (containing 5 mM MgCl2, 0.1% bovine serum albumin and 1 mM EGTA), and centrifuged at 45,000×g for 30 minutes again. The final pellet was resuspended in 100 mM Tris-HCl buffer. The resulting membrane preparation was used immediately for the binding assay.
Competition assays were conducted at equilibrium (15 minutes at 30° C.) by using 1.5 nM ^3 H-vasopressin (40-87 Ci/mmol; New England Nuclear) in 100 mM Tris-HCl (pH 7.4) buffer. Nonspecific binding was determined by using 1 μM vasopressin. After incubation, reaction was terminated by adding 5 ml of ice-cold 100 mM Tris-HCl (pH 7.4) buffer, and then filtered rapidly through Whatman glass filter (GF/C). The filter was washed twice with the same buffer. The glass filter was mixed with liquid scintilation cocktail, and radioactivity was counted in a liquid scintilation counter. Competition activity of the test compound was represented by IC50 values.

The structures appear in SMILES notation.

As usually defined, the IC50 is the concentration that inhibits the measured activity by half.

T1 sequence (P30518 whole entry): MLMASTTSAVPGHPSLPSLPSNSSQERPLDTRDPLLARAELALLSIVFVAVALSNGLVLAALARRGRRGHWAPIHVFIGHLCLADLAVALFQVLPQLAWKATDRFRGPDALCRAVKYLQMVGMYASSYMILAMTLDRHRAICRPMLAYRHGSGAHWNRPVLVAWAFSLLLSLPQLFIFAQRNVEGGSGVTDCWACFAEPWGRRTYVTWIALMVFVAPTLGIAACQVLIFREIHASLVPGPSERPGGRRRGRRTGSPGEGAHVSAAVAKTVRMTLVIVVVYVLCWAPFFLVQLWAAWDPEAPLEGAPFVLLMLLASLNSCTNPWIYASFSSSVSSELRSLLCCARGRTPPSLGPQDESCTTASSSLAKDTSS
T2 sequence (P37288 whole entry): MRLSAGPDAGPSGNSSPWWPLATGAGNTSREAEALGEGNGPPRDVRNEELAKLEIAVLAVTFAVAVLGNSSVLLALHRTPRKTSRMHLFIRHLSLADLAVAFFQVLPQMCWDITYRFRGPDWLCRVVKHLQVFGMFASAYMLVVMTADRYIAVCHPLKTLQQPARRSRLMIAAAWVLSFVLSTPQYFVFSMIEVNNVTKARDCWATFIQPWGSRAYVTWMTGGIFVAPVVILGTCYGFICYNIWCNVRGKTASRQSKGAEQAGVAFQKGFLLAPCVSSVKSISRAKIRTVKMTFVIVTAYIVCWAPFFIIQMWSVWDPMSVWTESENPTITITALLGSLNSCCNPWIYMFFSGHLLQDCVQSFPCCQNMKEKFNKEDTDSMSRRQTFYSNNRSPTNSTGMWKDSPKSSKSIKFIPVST

With `Cc1ccc(-c2ccccc2C(=O)Nc2ccc(C(=O)N(C)c3ccccc3OCCN(C)CCC(=O)N3CCN(C)CC3)cc2)cc1` [71-1)], the IC50 in experiment [1] stood at 4.4 nM.

`Cc1ccc(-c2ccccc2C(=O)Nc2ccc(C(=O)N(C)c3ccccc3OCc3ccc(C(=O)N4CCN(C)CC4)cc3)cc2)cc1` [27-36)] had an IC50 in experiment [1] of 3 nM.

`Cc1ccc(N(C)C(=O)c2ccc(NC(=O)c3ccccc3C)cc2)c(OCCCCCC(=O)N2CCN(C)CC2)c1` [27-58), 4-(Methylphenyl-2-carboxamido)-N-methyl-N-[4-methyl-2-[5-(4-methylpiperazin-1-yl)carbonylpent-1-yloxy]phenyl]benzamide] displayed an IC50 in experiment [2] of 4.4 nM. That is a single-digit nanomolar value.

Source of the values: patent US6211242A, “Benzamide derivatives as vasopressin antagonists” (Fujisawa Pharmaceutical Co., Ltd., priority 1994, dated 2001).
